Assay results taken from US12312346B2, “Pyridopyrimidine compounds and methods of their use” (Tufts Medical Center, Inc., priority 2018, dated 2025).
pIC50: −log10 of the molar value.

Tested on: human leukemia cell line HPBALL (with Notch1 mutations)
Assay: Cell cycle (PI staining, S-G2-M cells) and cell number, HPBALL
Type: cell-based
Conditions: Homo sapiens, 144 h; HPBALL, 6 days; read-out: IC50 (inhibition of proliferation, percentage of S-G2-M cells)
Method: FIG. 1A is a series of charts showing representative cell cycle profiles of human leukemia cell line HPBALL (with Notch1 mutations) treated with a vehicle (V) (for ribociclib (LEE) or compound GD) or LEE or compound GD for 6 days at 1, 5, 10, and 20 μM.
FIG. 1B is a histogram summarizing the cell cycle distribution of the HPBALL cell line treated with compound GD, as described for FIG. 1A. Data shown are mean±S.D. (n=6); *P<0.05 vs its vehicle controls, t-test.
FIG. 1C is a histogram summarizing the cell cycle distribution of the HPBALL cell line treated with ribociclib (LEE), as described for FIG. 1A. Data shown are mean±S.D. (n=6); *P<0.05 vs its vehicle controls, t-test.
FIG. 1D is a chart the percentage of S-G2-M cells in FIGS. 1B and 1C. IC50 is the concentration of an inhibitor where the response (here is the inhibition of proliferation) is reduced by half.
FIG. 1E is a bar graph summarizing the cell numbers of HPBALL cells treated with either GD with different doses or LEE (20 μM) for 6 days. Data shown are mean±S.D. (n=6); *P<0.05 vs vehicles (0) control, t-test.
HCl salt of 6-acetyl-5-methyl-2-((4-(piperazin-1-ylmethyl)thiazol-2-yl)amino)pyrido[2,3-d]pyrimidin-7(8H)-one (Compound GD) prepared in Example 1 was examined for its inhibitory activity in cancer cell lines and WT and CDK6^−/− mouse embryonic fibroblasts (MEFs) and stromal vascular fractions (SVFs). […]
Table 2: Experimental Procedures: sensitivity to CDK6 kinase activity inhibition was tested by incubating different cell lines in the presence of CDK6 inhibitor GD007/PBS for either 24 hours for detecting the status of pRB-780 phosphorylation, or 5 days for determining the effect of GD007 on cell proliferation. (1) By immunoblotting (WB), we will detect phospho-pRB-S^780, one of the substrates of CDK6 kinase; (2) By using FACS analysis, we will stain treated cells with Propidium Iodide (PI), a commonly used fluorescent intercalator, to measure the subpopulation of cell cycle to reveal any impact of CDK6 inhibition on cell proliferation; (3) cell numbers will be counted using hemocytometer.

## CN(C)C(=O)c1cc2cnc(Nc3ccc(N4CCNCC4)cn3)nc2n1C1CCCC1 [LEE, ribociclib, reference compound]
  pIC50: ~4.92
